In brackets after ≈: the same amount, converted by molar mass.
Experiments:
[1] = Cmax in mouse at 10 mg/kg, iv or po; assay type: ADME, organism-based; conditions: in vivo
[2] = Mutagenicity in Salmonella typhimurium by Ames test; assay type: toxicity; conditions: salmonella enterica subsp. enterica serovar typhimurium
[3] = Bioavailability in mouse at 10 mg/kg; assay type: ADME, organism-based; conditions: in vivo
[4] = target: T1, Tyrosine-protein kinase BTK (Homo sapiens, UniProt Q06187); assay: Inhibition of BTK in human PBM cells assessed as suppression of FCRgammaR/immune complex-stimulated TNFalpha production; assay type: cell-based
[5] = target: T2, Tyrosine-protein kinase ITK/TSK (Homo sapiens, UniProt Q08881); assay: Inhibition of ITK in human peripheral T cells assessed as suppression of TCR/anti-CD3-stimulated protein catalyzed PLCgamma1 phosphorylation; assay type: cell-based, T-cell
T2 sequence (Q08881 whole entry): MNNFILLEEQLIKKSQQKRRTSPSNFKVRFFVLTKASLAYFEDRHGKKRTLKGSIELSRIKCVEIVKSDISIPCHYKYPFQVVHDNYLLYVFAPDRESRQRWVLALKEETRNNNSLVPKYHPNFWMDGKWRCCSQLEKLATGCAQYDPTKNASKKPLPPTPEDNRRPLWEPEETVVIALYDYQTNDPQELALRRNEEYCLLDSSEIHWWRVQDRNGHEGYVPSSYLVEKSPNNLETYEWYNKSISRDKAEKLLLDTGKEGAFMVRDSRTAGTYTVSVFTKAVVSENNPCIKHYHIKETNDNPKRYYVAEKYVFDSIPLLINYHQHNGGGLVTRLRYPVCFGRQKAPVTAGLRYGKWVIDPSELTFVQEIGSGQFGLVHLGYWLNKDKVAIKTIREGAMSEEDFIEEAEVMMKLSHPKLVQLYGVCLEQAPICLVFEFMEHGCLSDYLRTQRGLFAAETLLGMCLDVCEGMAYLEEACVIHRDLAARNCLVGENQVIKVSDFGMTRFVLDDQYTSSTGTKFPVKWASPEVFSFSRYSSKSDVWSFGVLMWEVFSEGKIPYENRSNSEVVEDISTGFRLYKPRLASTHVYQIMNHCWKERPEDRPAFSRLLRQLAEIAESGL

[6] = target: T1, Tyrosine-protein kinase BTK; assay: Inhibition of BTK in human whole blood basophils assessed as suppression of FceRI/anti-IgE-stimulated CD63 surface expression; assay type: tissue-based
[7] = target: T3, Cytochrome P450 2B6 (Homo sapiens, UniProt P20813); assay: Inhibition of CYP2B6 (unknown origin); assay type: ADME
T3 sequence (P20813 whole entry): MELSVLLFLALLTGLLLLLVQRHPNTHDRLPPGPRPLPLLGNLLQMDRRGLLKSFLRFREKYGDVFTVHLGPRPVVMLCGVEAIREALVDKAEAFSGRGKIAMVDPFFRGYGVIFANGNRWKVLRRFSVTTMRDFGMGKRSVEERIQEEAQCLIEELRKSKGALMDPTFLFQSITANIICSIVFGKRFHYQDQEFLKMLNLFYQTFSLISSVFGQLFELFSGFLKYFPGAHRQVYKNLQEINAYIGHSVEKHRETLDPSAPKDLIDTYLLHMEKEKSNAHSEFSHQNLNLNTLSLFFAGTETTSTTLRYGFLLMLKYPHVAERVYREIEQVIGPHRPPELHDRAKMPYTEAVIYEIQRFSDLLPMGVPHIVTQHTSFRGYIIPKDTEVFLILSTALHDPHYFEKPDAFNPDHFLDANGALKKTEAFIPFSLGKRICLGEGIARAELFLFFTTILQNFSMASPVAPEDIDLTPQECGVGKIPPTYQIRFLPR

[8] = target: T4, Cytochrome P450 2C8 (Homo sapiens, UniProt P10632); assay: Inhibition of CYP2C8 (unknown origin); assay type: ADME
T4 sequence (P10632 whole entry): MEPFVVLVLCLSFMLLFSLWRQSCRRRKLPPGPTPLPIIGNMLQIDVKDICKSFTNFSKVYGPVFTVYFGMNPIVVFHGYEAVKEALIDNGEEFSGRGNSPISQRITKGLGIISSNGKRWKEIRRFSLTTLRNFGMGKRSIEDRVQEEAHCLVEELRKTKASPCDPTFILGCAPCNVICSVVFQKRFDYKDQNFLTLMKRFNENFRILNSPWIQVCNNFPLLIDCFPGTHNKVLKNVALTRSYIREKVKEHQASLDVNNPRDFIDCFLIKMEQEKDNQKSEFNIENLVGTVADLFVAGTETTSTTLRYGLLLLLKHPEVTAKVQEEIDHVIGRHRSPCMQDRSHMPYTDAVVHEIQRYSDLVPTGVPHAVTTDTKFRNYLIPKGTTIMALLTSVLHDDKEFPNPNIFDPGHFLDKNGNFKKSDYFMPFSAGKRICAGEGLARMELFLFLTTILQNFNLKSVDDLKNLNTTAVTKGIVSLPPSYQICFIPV

[9] = target: Cytochrome P450 2C19 (Homo sapiens, UniProt P33261); assay: Inhibition of CYP2C19 (unknown origin); assay type: ADME
[10] = target: Cytochrome P450 3A4 (Homo sapiens, UniProt P08684); assay: Inhibition of CYP3A4 (unknown origin); assay type: ADME
[11] = Aqueous solubility of the compound; assay type: physicochemical; conditions: aqueous medium
[12] = Solubility of the compound in fasted state stimulated intestinal fluid; assay type: ADME; conditions: fasted state simulated intestinal fluid (FaSSIF)
[13] = Solubility of the compound in fed state stimulated intestinal fluid; assay type: ADME; conditions: fed state simulated intestinal fluid (FeSSIF)
[14] = Distribution coefficient, log D of the compound at pH 7.0 by HPLC method; assay type: physicochemical; conditions: octanol/water
[15] = Tmax in mouse at 6 mg/kg, po; assay type: ADME, organism-based; conditions: in vivo
[16] = Half life in mouse at 3 mg/kg, iv; assay type: ADME, organism-based; conditions: in vivo
[17] = Volume of distribution at steady state in mouse at 3 mg/kg, iv; assay type: ADME, organism-based; conditions: in vivo, read-out: Vdss
[18] = Oral bioavailability in mouse at 3 mg/kg; assay type: ADME, organism-based; conditions: in vivo
[19] = AUC in rat at 5 mg/kg, po; assay type: ADME, organism-based; conditions: in vivo
[20] = Oral bioavailability in rat at 5 mg/kg; assay type: ADME, organism-based; conditions: in vivo
[21] = Tmax in cynomolgus monkey at 4 mg/kg, po; assay type: ADME, organism-based, Macaca fascicularis; conditions: in vivo
[22] = Half life in cynomolgus monkey at 2 mg/kg, iv; assay type: ADME, organism-based, Macaca fascicularis; conditions: in vivo
[23] = Clearance in cynomolgus monkey at 2 mg/kg, iv; assay type: ADME, organism-based, Macaca fascicularis; conditions: in vivo
[24] = Oral bioavailability in cynomolgus monkey at 4 mg/kg; assay type: ADME, organism-based, Macaca fascicularis; conditions: in vivo
[25] = AUC in dog at 2 mg/kg, po; assay type: ADME, organism-based, Canis lupus familiaris; conditions: in vivo
[26] = Half life in dog at 1 mg/kg, iv; assay type: ADME, organism-based, Canis lupus familiaris; conditions: in vivo
[27] = Clearance in dog at 1 mg/kg, iv; assay type: ADME, organism-based, Canis lupus familiaris; conditions: in vivo
[28] = Drug uptake in rat brain relative to plasma concentration; assay type: ADME
[29] = system: Mus musculus; assay: Antiathritis activity in anticollagen antibody-induced arthritis BALB/c mouse model assessed as reduction in LPS-induced paw swelling at 20 mg/kg, po qd followed by LPS addition on day 3 measured after 11 days relative to control; assay type: functional; design: scale not given: the % may be the effect or the level left
[30] = target: T1, Tyrosine-protein kinase BTK; assay: Inhibition of BTK in human Ramos-B cells assessed as suppression of BCR/anti-IgM-stimulated Ca2+ flux after 1 hr incubation in dark by FLIPR1 assay

T1 sequence (Q06187 whole entry): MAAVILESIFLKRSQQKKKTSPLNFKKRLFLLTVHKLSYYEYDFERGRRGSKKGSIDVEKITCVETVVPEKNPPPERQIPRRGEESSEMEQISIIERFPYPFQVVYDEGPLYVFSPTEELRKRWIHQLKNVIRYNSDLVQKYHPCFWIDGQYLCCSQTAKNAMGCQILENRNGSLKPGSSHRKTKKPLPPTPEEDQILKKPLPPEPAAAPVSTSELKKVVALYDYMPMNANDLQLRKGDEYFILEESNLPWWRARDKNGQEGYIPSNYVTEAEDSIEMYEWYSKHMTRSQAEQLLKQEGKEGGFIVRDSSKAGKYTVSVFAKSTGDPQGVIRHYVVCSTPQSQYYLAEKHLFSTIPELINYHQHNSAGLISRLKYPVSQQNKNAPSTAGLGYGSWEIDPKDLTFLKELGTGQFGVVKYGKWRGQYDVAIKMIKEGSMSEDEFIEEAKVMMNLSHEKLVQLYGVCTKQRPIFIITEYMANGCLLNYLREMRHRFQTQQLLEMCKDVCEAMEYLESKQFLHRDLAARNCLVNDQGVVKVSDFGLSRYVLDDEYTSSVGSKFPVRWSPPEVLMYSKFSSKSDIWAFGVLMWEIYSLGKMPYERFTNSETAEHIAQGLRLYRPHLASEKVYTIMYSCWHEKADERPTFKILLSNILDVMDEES
Sequence of Cytochrome P450 3A4 (P08684 whole entry): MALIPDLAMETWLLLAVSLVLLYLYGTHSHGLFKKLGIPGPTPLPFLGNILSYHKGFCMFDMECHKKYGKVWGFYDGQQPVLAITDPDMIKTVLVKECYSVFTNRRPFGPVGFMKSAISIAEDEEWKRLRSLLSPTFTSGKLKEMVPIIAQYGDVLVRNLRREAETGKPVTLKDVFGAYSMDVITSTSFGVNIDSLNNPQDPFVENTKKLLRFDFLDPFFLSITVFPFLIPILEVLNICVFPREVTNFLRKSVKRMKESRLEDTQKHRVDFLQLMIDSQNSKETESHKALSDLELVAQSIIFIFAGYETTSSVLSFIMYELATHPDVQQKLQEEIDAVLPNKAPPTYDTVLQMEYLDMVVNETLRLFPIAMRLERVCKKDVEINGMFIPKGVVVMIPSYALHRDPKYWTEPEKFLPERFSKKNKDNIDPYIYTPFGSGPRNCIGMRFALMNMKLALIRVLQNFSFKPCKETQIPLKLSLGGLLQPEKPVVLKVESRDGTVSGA
Sequence of Cytochrome P450 2C19 (P33261 whole entry): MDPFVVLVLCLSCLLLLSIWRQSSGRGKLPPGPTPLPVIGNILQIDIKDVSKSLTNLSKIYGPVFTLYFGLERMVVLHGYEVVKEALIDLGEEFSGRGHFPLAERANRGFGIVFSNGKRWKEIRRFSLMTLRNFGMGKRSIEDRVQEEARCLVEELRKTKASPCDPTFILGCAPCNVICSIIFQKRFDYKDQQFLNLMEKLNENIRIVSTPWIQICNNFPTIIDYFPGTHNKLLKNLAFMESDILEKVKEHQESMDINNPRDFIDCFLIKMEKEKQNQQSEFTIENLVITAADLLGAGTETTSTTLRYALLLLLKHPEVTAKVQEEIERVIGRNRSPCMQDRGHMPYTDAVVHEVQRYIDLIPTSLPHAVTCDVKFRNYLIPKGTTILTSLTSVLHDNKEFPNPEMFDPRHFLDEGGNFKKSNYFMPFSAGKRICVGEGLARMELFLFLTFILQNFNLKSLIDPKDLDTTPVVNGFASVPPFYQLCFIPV

Cmax [1]: 4.9 µM | bioavailability [3]: < 4% | IC50 [4]: 3 nM | IC50 [5]: 410 nM | IC50 [6]: 89 nM | IC50 [7]: > 40000 nM | IC50 [8]: 2600 nM | IC50 [9]: 32200 nM | IC50 [10]: 8500 nM | solubility [11]: < 4 µg/mL | solubility [12]: 18 µg/mL (≈ 31.4 µM) | solubility [13]: 368 µg/mL (≈ 643 µM) | logD [14]: 4.06 | Tmax [15]: 1 h | half-life [16]: 3.4 h | Vd [17]: 1.2 L/kg | bioavailability [18]: 93% | AUC [19]: 23 µM·h | bioavailability [20]: 67% | Tmax [21]: 3.7 h | half-life [22]: 5.1 h | clearance [23]: 10 mL/min/kg | bioavailability [24]: 33% | AUC [25]: 16 µM·h | half-life [26]: 13 h | clearance [27]: 3.2 mL/min/kg | Drug uptake [28]: < 5% | IC50 [30]: 9 nM
SMILES: Cc1c(-c2c(F)cc(C(N)=O)c3[nH]c4c(c23)CC[C@H](C(C)(C)O)C4)cccc1-n1c(=O)c2cccc(F)c2n(C)c1=O (atropisomer R) [BMS-986142]
Activity [2]: Non-Toxic | Activity [29]: 100%
